# Literature values in patent US20180193283A1, “TRANSDERMAL THERAPEUTIC SYSTEM CONTAINING ASENAPINE” (LTS LOHMANN Therapie-Systeme AG, priority 2016, published 2018).
# Like-named read-outs stand apart in the source and are kept apart here.
# Experiments:
# [1] = very common side effects
structure (smiles),measurement,setting,value
"CN1C[C@H]2c3ccccc3Oc3ccc(Cl)cc3[C@@H]2C1 (relative stereo) [asenapine, (3aRS,12bRS)-rel-5-chloro-2,3,3a,12b-tetrahydro-2-methyl-1H-dibenz[2,3:6,7]oxepino[4,5-c]pyrrole]",bioavailability,if ingested,< 2%
same,terminal disposition half-life,"sublingual administration, therapeutic doses",≥ 1 days
same,bioavailability,when taken sublingually,35%
same,"Somnolence and anxiety, frequency",[1],≥ 10 % of the patients
